# Where a name gives a salt, the structure may show the parent alone. Read-outs that look alike come from different tables or passages of the source.
# System: murine neural precursor cells (neurosphere cultures)
# Test: HTS of LOPAC library against secondary neurosphere cultures, MTT proliferation assay at 3 μM, day 7 (z score, P value)
# Type: cell-based, mouse
# [1] = LOPAC library screen, 3 μM, MTT, neurosphere cultures
# [2] = LOPAC primary screen, neurosphere MTT proliferation, 3 μM, day 7
# [3] = yes/no: significantly inhibited neurosphere proliferation in primary screen
# [4] = LOPAC library screen at 3 μM, secondary neurosphere cultures, MTT
# [5] = LOPAC library screen, 3 μM, MTT, secondary neurosphere cultures, day 7
# [6] = yes = significantly inhibited neurosphere proliferation (P<0.01) in the primary screen
# [7] = yes/no: significantly inhibited neurosphere proliferation (P<0.01) in primary screen
# [8] = yes/no: significantly inhibited neurosphere proliferation (P<0.01) in the primary screen
# [9] = LOPAC screen, neurosphere MTT proliferation, 3 μM, day 7
smiles,measurement,setting,value
O=c1[nH]c2ccccc2n1CCCN1CCN(C(c2ccccc2)c2ccccc2)CC1 [Oxatomide],Z Score,[1],0.5957
same,Z score,[2],0.596
same,Activity,[3],no
NC(=O)CN1CC(O)CC1=O (centres unmarked) [Oxiracetam],Z Score,[4],−0.6131
same,Z score,[2],−0.613
same,Activity,[3],no
CCn1cc(C(=O)O)c(=O)c2cc3c(cc21)OCO3 [Oxolinic acid],Z Score,[1],0.9179
same,Z score,[2],0.918
same,Activity,[3],no
C[N+](C)(C)CC#CCN1CCCC1=O [Oxotremorine methiodide],Z Score,,−0.7002
same,Z score,[2],−0.700
same,Activity,[3],no
CCN(CC)CC#CCOC(=O)C(O)(c1ccccc1)C1CCCCC1 (centres unmarked) [Oxybutynin Chloride],Activity,,no
same,Z Score,[1],0.708
same,Z score,[2],0.708
Cc1cc(C(C)(C)C)c(O)c(C)c1CC1=NCCN1 [Oxymetazoline hydrochloride],Z Score,[5],−2.72
same,Z score,[2],−2.720
same,Activity,[6],yes
"COc1cccc(-c2cc(=O)c3ccccc3o2)c1N [PD 98,059]",Activity,,no
same,Z Score,,0.9027
same,Z score,[2],0.903
"Cc1cccc(C(=O)NCN2CCN(c3ccccc3C#N)CC2)c1.O=C(O)/C=C\C(=O)O [PD 168,077 maleate]",Z Score,,−1.516
same,Z score,[2],−1.516
same,Activity,[3],no
"N=C1Sc2ccccc2C2=NCCCN12 [PD 404,182]",Z Score,,0.09055
same,Z score,[2],0.091
same,Activity,[3],no
CCC(C)N(C)C(=O)c1cc2ccccc2c(-c2ccccc2Cl)n1 (centres unmarked) [PK 11195],Z Score,"168 h, 3 µM",−0.4676
same,Z score,"168 h, 3 µM",−0.468
same,Activity,[7],no
Cc1nc(N=Nc2ccc(S(=O)(=O)O)cc2S(=O)(=O)O)c(COP(=O)(O)O)c(C=O)c1O [PPADS],Z Score,,1.106
same,Z score,[2],1.106
same,Activity,[3],no
Cc1nc(N=Nc2cc(S(=O)(=O)[O-])c3cc([N+](=O)[O-])cc(S(=O)(=O)[O-])c3c2)c(COP(=O)([O-])[O-])c(C=O)c1O.[Na+].[Na+].[Na+].[Na+] [PPNDS tetrasodium],Z Score,,−2.067
same,Z score,[2],−2.067
same,Activity,[3],no
O=C(OCCN1CCOCC1)C1(c2ccccc2)CCCCC1 [PRE-084],Z Score,,1.311
same,Z score,[2],1.311
same,Activity,[8],no
CCCCCCCCCCCCCCCC(=O)NCCO [Palmitoylethanolamide],Activity,,no
same,Z Score,[4],−0.9134
same,Z score,[2],−0.913
CC(=O)O[C@H]1C[C@@H]2CC[C@@H]3[C@H](CC[C@@]4(C)[C@H]3C[C@H]([N+]3(C)CCCCC3)[C@@H]4OC(C)=O)[C@@]2(C)C[C@@H]1[N+]1(C)CCCCC1 [Pancuronium bromide],Z Score,[1],0.4077
same,Z score,[2],0.408
same,Activity,[3],no
COc1ccc(Cc2nccc3cc(OC)c(OC)cc23)cc1OC [Papaverine hydrochloride],Z Score,[4],−0.2992
same,Z score,[2],−0.299
same,Activity,[3],no
NC[C@@H]1O[C@H](O[C@H]2[C@@H](O)[C@H](O[C@@H]3[C@@H](O)[C@H](N)C[C@H](N)[C@H]3O[C@H]3O[C@H](CO)[C@@H](O)[C@H](O)[C@H]3N)O[C@@H]2CO)[C@H](N)[C@@H](O)[C@@H]1O.O=S(=O)(O)O [Paramomycin sulfate],Z score,[2],0.821
same,Activity,[3],no
C#CCN(C)Cc1ccccc1 [Pargyline hydrochloride],Z Score,[4],−0.2794
same,Z score,[2],−0.279
same,Activity,[3],no
NC[C@@H]1O[C@H](O[C@H]2[C@@H](O)[C@H](O[C@@H]3[C@@H](O)[C@H](N)C[C@H](N)[C@H]3O[C@H]3O[C@H](CO)[C@@H](O)[C@H](O)[C@H]3N)O[C@@H]2CO)[C@H](N)[C@@H](O)[C@@H]1O [Paromomycin sulfate],Z Score,[1],0.821
CN1C(C)(C)CCCC1(C)C [Pempidine tartrate],Z Score,[5],−1.719
same,Z score,[2],−1.719
same,Activity,[6],no
"N=C(N)c1ccc(OCCCCCOc2ccc(C(=N)N)cc2)cc1 [Pentamidine (32), Pentamidine, reference compound]",Activity,,yes
same,Z Score,[5],−11.27
same,Z score,[2],−11.274
C[N+]1(CCCCC[N+]2(C)CCCC2)CCCC1.O=C([O-])C(O)C(O)C(=O)O.O=C([O-])C(O)C(O)C(=O)O [Pentolinium di[L(+)-tartrate]],Z Score,[1],0.1662
same,Z score,[2],0.166
same,Activity,[3],no
CC(=O)CCCCn1c(=O)c2c(ncn2C)n(C)c1=O [Pentoxifylline],Z Score,[5],−1.637
same,Z score,[2],−1.637
same,Activity,[3],no
C1CCc2nnnn2CC1 [Pentylenetetrazole],Z Score,[4],−0.9274
same,Z score,[2],−0.927
same,Activity,[6],no
CCCN1C[C@H](CSC)C[C@@H]2c3cccc4[nH]cc(c34)C[C@H]21 [Pergolide methanesulfonate],Z Score,[5],−2.657
same,Z score,[2],−2.657
same,Activity,[8],yes
"OCCN1CCN(CCCN2c3ccccc3Sc3ccc(Cl)cc32)CC1 [Perphenazine (26), Perphenazine, reference compound]",Z Score,[5],−11.06
same,Z score,[2],−11.065
same,Activity,[8],yes
NCC(CP(=O)(O)O)c1ccc(Cl)cc1 (centres unmarked) [Phaclofen],Z Score,,0.9701
same,Z score,[2],0.970
same,Activity,[3],no
NC(=Nc1ccccc1)NC(=O)c1nc(Cl)c(N)nc1N [Phenamil methanesulfonate],Z Score,[1],1.485
same,Z score,[2],1.485
same,Activity,[8],no
NNCCc1ccccc1 [Phenelzine sulfate],Z Score,[5],−1.536
same,Z score,[2],−1.536
same,Activity,[3],no
CN(C)CCC(c1ccccc1)c1ccccn1 (centres unmarked) [Pheniramine maleate],Z Score,[4],−0.2062
same,Z score,[2],−0.206
same,Activity,[8],no
CC(COc1ccccc1)N(CCCl)Cc1ccccc1 (centres unmarked) [Phenoxybenzamine hydrochloride],Z Score,,−1.512
same,Z score,[9],−1.512
same,Activity,[7],no
Cc1ccc(N(CC2=NCCN2)c2cccc(O)c2)cc1 [Phentolamine mesylate],Z Score,"168 h, 3 µM",−0.3191
same,Z score,"168 h, 3 µM",−0.319
same,Activity,[3],no
CCCCC1C(=O)N(c2ccccc2)N(c2ccccc2)C1=O [Phenylbutazone],Z Score,[1],0.7902
same,Z score,[2],0.790
CNC[C@H](O)c1cccc(O)c1 [Phenylephrine hydrochloride],Activity,,no
same,Z Score,[5],−1.257
same,Z score,[2],−1.257
O=C1NC(=O)C(c2ccccc2)(c2ccccc2)N1 [Phenytoin sodium],Z Score,[4],−0.2166
same,Z score,[9],−0.217
same,Activity,[7],no
O=C(CCc1ccc(O)cc1)c1c(O)cc(O)cc1O [Phloretin],Z Score,"168 h, 3 µM",0.9165
same,Z score,"168 h, 3 µM",0.916
CCCCCCCCCCCCCC(=O)O[C@@H]1[C@@H](C)[C@@]2(O)[C@@H](C=C(CO)C[C@]3(O)C(=O)C(C)=C[C@@H]23)[C@@H]2C(C)(C)[C@]12OC(C)=O [Phorbol 12-myristate 13-acetate],Z Score,,−0.265
same,Z score,[2],−0.265
same,Activity,[3],no
C[C@@H]1O[C@@H]1P(=O)([O-])[O-].[Na+].[Na+] [Phosphomycin disodium],Z Score,[5],−1.402
same,Z score,[2],−1.402
same,Activity,[6],no
O=C(O)CP(=O)(O)O [Phosphonoacetic acid],Z Score,[4],−0.8885
same,Z score,[2],−0.888
same,Activity,[3],no
CC(C)C[C@H](NP(=O)(O)O[C@@H]1O[C@@H](C)[C@H](O)[C@@H](O)[C@H]1O)C(=O)N[C@@H](Cc1c[nH]c2ccccc12)C(=O)O [Phosphoramidon disodium],Z Score,"168 h, 3 µM",−0.5097
same,Z score,"168 h, 3 µM",−0.510
same,Activity,[3],no
NC(=O)c1ccccc1C(=O)N[C@@H](CCC(=O)O)C(=O)O.[Na].[Na].[Na] [Phthalamoyl-L-glutamic acid trisodium],Z Score,"168 h, 3 µM",0.2509
same,Z score,"168 h, 3 µM",0.251
same,Activity,[3],no
Oc1cc(O)cc(/C=C/c2ccc(O)c(O)c2)c1 [Piceatannol],Z Score,"168 h, 3 µM",0.5958
same,Z score,"168 h, 3 µM",0.596
COc1ccc(C(=O)NCc2cccnc2)cc1C(=O)NCc1cccnc1 [Picotamide],Z Score,"LOPAC library screen at 3 μM, MTT, secondary neurosphere cultures, screened in singlets",1.736
same,Z score,[2],1.736
same,Activity,[3],no
CC[C@@H]1C(=O)OC[C@@H]1Cc1cncn1C [Pilocarpine nitrate],Z Score,"168 h, 3 µM",−1.213
same,Z score,"168 h, 3 µM",−1.213
same,Activity,[6],no
O=c1[nH]c2ccccc2n1C1CCN(CCCC(c2ccc(F)cc2)c2ccc(F)cc2)CC1 [Pimozide],Z Score,[4],−0.2323
same,Z score,[2],−0.232
CC(N/C(=N\C#N)Nc1ccncc1)C(C)(C)C (centres unmarked) [Pinacidil],Z Score,[5],−2.117
same,Z score,[2],−2.117
same,Activity,[3],no
CC(C)NCC(O)COc1cccc2[nH]ccc12 (centres unmarked) [Pindolol],Z Score,[1],−0.07895
same,Z score,[2],−0.079
same,Activity,[3],no
O=S(=O)(O)C1CCNCC1 [Piperidine-4-sulphonic acid],Z Score,"168 h, 3 µM",−0.4238
same,Z score,"168 h, 3 µM",−0.424
same,Activity,[3],no
NC(=O)CN1CCCC1=O [Piracetam],Z Score,[4],−0.3758
same,Z score,[2],−0.376
same,Activity,[6],no
Cc1nc2ccccn2c(=O)c1CCN1CCC(C(=O)c2ccc(F)cc2)CC1 [Pirenperone],Z Score,[1],0.2279
same,Z score,[2],0.228
same,Activity,[8],no
CN1CCN(CC(=O)N2c3ccccc3C(=O)Nc3cccnc32)CC1 [Pirenzepine dihydrochloride],Z score,"168 h, 3 µM",−0.545
same,Activity,[3],no
CN1CCN(CC(=O)N2c3ccccc3C(=O)Nc3cccnc32)CC1.Cl.Cl [Pireuzepine dihydrochloride],Z Score,,−0.545

# — patent US8058243B2, “Method for treating a brain cancer with ifenprodil” (HSC Research and Development Limited Partnership, priority 2006, dated 2011)
